Data on 11 molecules can be found in patent US9127038B2, “Kisspeptide-pentasaccharide conjugates” (Merck Sharp & Dohme Corp., priority 2011, dated 2015).

Where two headings read alike, the source gives them in different places.

The target of this assay is T1, human KISS-receptor (Homo sapiens, UniProt Q969F8).
T1 construct: expressed in transfected cells; host or cells: CHO-k1 cells that also express mitochondrially targeted aequorin, Gα16 and an NFAT-luciferase reporter
In words: NFAT-regulated luciferase reporter gene assay in CHO-k1 cells, agonist activity. Format: cell-based. In general terms: Reporter assays use an easily measured gene product as a stand-in for the process of interest.

Where [1] appears, read: pEC50 serum, presence of 20% human serum.
[2] abbreviates: absence of human serum, read-out: pEC50 (converted).
The mark [3] stands for this setting: presence of 20% human serum, read-out: pEC50 serum (converted).

T1 sequence (Q969F8 whole entry): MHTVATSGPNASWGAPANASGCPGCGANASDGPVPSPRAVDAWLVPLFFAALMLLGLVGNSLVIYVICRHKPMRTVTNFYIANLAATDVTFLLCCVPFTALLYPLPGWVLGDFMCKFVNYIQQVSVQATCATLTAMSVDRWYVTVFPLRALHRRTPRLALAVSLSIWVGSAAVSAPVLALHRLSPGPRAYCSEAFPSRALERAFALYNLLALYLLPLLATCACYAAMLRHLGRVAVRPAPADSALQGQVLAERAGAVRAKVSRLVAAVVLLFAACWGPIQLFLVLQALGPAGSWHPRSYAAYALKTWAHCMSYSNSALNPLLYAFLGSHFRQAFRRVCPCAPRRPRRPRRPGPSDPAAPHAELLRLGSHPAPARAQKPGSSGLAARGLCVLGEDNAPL
Description: CHO-k1 cells were used that expressed the mitochondrially targeted aequorine and Gα16 (from Euroscreen, Brussels, Belgium), a Nuclear Factor of Activated T-cells-responsive element (NFAT) under the control of a promoter directing the expression of a firefly luciferase reporter gene (pNFAT-TALuc obtained from Clontech, Mountain View, Calif.), and the human GPR54-R Hygro(+)-hGPR54WT c4; MSD). These cells were cultured in Dulbecco's Modified Eagle Medium: Nutrient Mixture F-12 (DMEM/F12) (Invitrogen, Carlsbad, Calif.), supplemented with 10% (vol/vol) filtered bovine serum (Hyclone, Thermo Fisher Scientific, Waltham, Mass.), 100 U/ml penicillin G, 100 μg/ml streptomycin, 400 μg/ml Geneticin and 400 μg/ml Hygromycin (Invitrogen). […] Kisspeptin-10 was used as a standard. […] When the conjugates were tested in the presence of a final percentage of 20% human serum, 10 μl assay medium containing 60% human serum (Sigma-Aldrich, #H4522) was added to the wells. In the absence of human serum, 10 μl of assay medium was added. Cells were harvested and diluted to a concentration of 7.5E5 cells/ml in assay medium without 0.1% BSA. 10 μl of cell solution was added to the compound wells. After incubation for 4 hours in a humidified atmosphere at 5% CO2 and 37° C., the plate was left at room temperature for 30 minutes. Subsequently, 15 μl of Steadylite™ solution (PerkinElmer, Boston, Mass.) was added and the cells, protected from light, were allowed to lyse for 30 min at room temperature. Luminescence, indicated as relative luminescence units (RLU), was measured on an Envision Multilabel reader (PerkinElmer).

Regarding `CNC(=N)NCCC[C@H](NC(=O)[C@H](CC(C)C)NC(=O)CNC(=O)[C@H](Cc1ccccc1)NC(=O)[C@@H](NC(=O)[C@H](CC(N)=O)NC(=O)[C@H](CCCCNC(=O)CCOCCOCCOCCOCCn1cc(CCC(=O)NCCOCCOCCOCCO[C@H]2[C@H](OC)[C@@H](OC)[C@@H](O[C@H]3[C@H](OC)[C@@H](OC)[C@H](O[C@H]4[C@H](OS(=O)(=O)O)[C@@H](OS(=O)(=O)O)[C@@H](O[C@H]5[C@H](OC)[C@@H](OC)[C@H](O[C@H]6[C@H](OS(=O)(=O)O)[C@@H](OS(=O)(=O)O)[C@@H](OC)O[C@@H]6COS(=O)(=O)O)O[C@H]5C(=O)O)O[C@@H]4COS(=O)(=O)O)O[C@@H]3C(=O)O)O[C@@H]2COS(=O)(=O)O)nn1)NC(=O)[C@H](CC(N)=O)NC(=O)[C@@H](N)Cc1ccc(O)cc1)[C@@H](C)O)C(=O)N[C@@H](Cc1ccccc1)C(N)=O` [Conjugate C28], the EC50 (pEC50, absence of human serum) was 141 pM and the EC50 under setting [1] was 4270 pM.
Take `CNC(=N)NCCC[C@H](NC(=O)[C@H](CC(C)C)NC(=O)NNC(=O)[C@H](Cc1ccccc1)NC(=O)[C@@H](NC(=O)[C@H](CC(N)=O)NC(=O)[C@H](Cc1c[nH]c2ccccc12)NC(=O)[C@H](CC(N)=O)NC(=O)[C@@H](Cc1ccc(O)cc1)Nc1c(NCCOCCOCCOCCOCC(=O)NCCOCCOCCOCCO[C@H]2[C@H](OC)[C@@H](OC)[C@@H](O[C@H]3[C@H](OC)[C@@H](OC)[C@H](O[C@H]4[C@H](OS(=O)(=O)O)[C@@H](OS(=O)(=O)O)[C@@H](O[C@H]5[C@H](OC)[C@@H](OC)[C@H](O[C@H]6[C@H](OS(=O)(=O)O)[C@@H](OS(=O)(=O)O)[C@@H](OC)O[C@@H]6COS(=O)(=O)O)O[C@H]5C(=O)O)O[C@@H]4COS(=O)(=O)O)O[C@@H]3C(=O)O)O[C@@H]2COS(=O)(=O)O)c(=O)c1=O)[C@@H](C)O)C(=O)N[C@@H](Cc1ccccc1)C(N)=O` [Conjugate C3]: the EC50 reads like this: under setting [2], 77.6 pM; under setting [3], 6310 pM.
Taken in the same sequence, the figures for `CNC(=N)NCCC[C@H](NC(=O)[C@H](CC(C)C)NC(=O)CNC(=O)[C@H](Cc1ccccc1)NC(=O)[C@@H](NC(=O)[C@H](CC(N)=O)NC(=O)[C@H](Cc1ccccc1)NC(=O)[C@H](CC(N)=O)NC(=O)[C@H](Cc1ccc(O)cc1)NC(=O)CCCCn1cc(CCC(=O)NCCOCCOCCOCCO[C@H]2[C@H](OC)[C@@H](OC)[C@@H](O[C@H]3[C@H](OC)[C@@H](OC)[C@H](O[C@H]4[C@H](OS(=O)(=O)O)[C@@H](OS(=O)(=O)O)[C@@H](O[C@H]5[C@H](OC)[C@@H](OC)[C@H](O[C@H]6[C@H](OS(=O)(=O)O)[C@@H](OS(=O)(=O)O)[C@@H](OC)O[C@@H]6COS(=O)(=O)O)O[C@H]5C(=O)O)O[C@@H]4COS(=O)(=O)O)O[C@@H]3C(=O)O)O[C@@H]2COS(=O)(=O)O)nn1)[C@@H](C)O)C(=O)N[C@@H](Cc1ccccc1)C(N)=O` [Conjugate C29] were 407 pM and 8130 pM.
In the case of `CNC(=N)NCCC[C@H](NC(=O)[C@H](CC(C)C)NC(=O)NNC(=O)[C@H](Cc1ccccc1)NC(=O)[C@@H](NC(=O)[C@H](CC(N)=O)NC(=O)[C@@H]1C[C@@H](O)CN1C(=O)[C@@H](Cc1ccc(O)cc1)NC(=O)CCOCCOCCOCCOCCn1cc(CCC(=O)NCCOCCOCCOCCOCC(=O)NCCOCCOCCOCCO[C@H]2[C@H](OC)[C@@H](OC)[C@@H](O[C@H]3[C@H](OC)[C@@H](OC)[C@H](O[C@H]4[C@H](OS(=O)(=O)O)[C@@H](OS(=O)(=O)O)[C@@H](O[C@H]5[C@H](OC)[C@@H](OC)[C@H](O[C@H]6[C@H](OC)[C@@H](OS(=O)(=O)O)[C@@H](OC)O[C@@H]6COS(=O)(=O)O)O[C@H]5C(=O)O)O[C@@H]4COS(=O)(=O)O)O[C@@H]3C(=O)O)O[C@@H]2COS(=O)(=O)O)nn1)[C@@H](C)O)C(=O)N[C@@H](Cc1c[nH]c2ccccc12)C(N)=O` [Conjugate C32], the EC50 by setting is: under setting [2], 151 pM; under setting [3], 355 pM.
As to `CNC(=N)NCCC[C@H](NC(=O)[C@H](CC(C)C)NC(=O)NNC(=O)[C@H](Cc1ccccc1)NC(=O)[C@@H](NC(=O)[C@H](CC(N)=O)NC(=O)[C@@H]1C[C@@H](O)CN1C(=O)[C@@H](Cc1ccc(O)cc1)NC(=O)CCCCn1cc(CCC(=O)NCCOCCOCCOCCO[C@H]2[C@H](OC)[C@@H](OC)[C@@H](O[C@H]3[C@H](OC)[C@@H](OC)[C@H](O[C@H]4[C@H](OS(=O)(=O)O)[C@@H](OS(=O)(=O)O)[C@@H](O[C@H]5[C@H](OC)[C@@H](OC)[C@H](O[C@H]6[C@H](OC)[C@@H](OS(=O)(=O)O)[C@@H](OC)O[C@@H]6COS(=O)(=O)O)O[C@H]5C(=O)O)O[C@@H]4COS(=O)(=O)O)O[C@@H]3C(=O)O)O[C@@H]2COS(=O)(=O)O)nn1)[C@@H](C)O)C(=O)N[C@@H](Cc1c[nH]c2ccccc12)C(N)=O` [Conjugate C30], the EC50 is 47.9 pM (pEC50, absence of human serum) and 195 pM under setting [1].
For the molecule `CO[C@H]1O[C@H](COS(=O)(=O)O)[C@@H](O[C@@H]2O[C@@H](C(=O)O)[C@@H](O[C@H]3O[C@H](COS(=O)(=O)O)[C@@H](O[C@@H]4O[C@H](C(=O)O)[C@@H](O[C@H]5O[C@H](COS(=O)(=O)O)[C@@H](OCCOCCOCCOCCNC(=O)CCc6cn(CCCCC(=O)N[C@H](Cc7ccc(O)cc7)C(=O)N7C[C@H](O)C[C@H]7C(=O)N[C@@H](CC(N)=O)C(=O)N[C@H](C(=O)N[C@@H](Cc7ccccc7)C(=O)NNC(=O)N[C@@H](CC(C)C)C(=O)N[C@@H](CCCNC(=N)N)C(=O)N[C@@H](Cc7c[nH]c8ccccc78)C(N)=O)[C@@H](C)O)nn6)[C@H](OC)[C@H]5OC)[C@H](OC)[C@H]4OC)[C@H](OS(=O)(=O)O)[C@H]3OS(=O)(=O)O)[C@H](OC)[C@H]2OC)[C@H](OS(=O)(=O)O)[C@H]1OS(=O)(=O)O` [Conjugate C37], the EC50 under setting [2] is 12.6 pM and the EC50 under setting [3] was 1150 pM.
The matching figures for `CO[C@H]1O[C@H](COS(=O)(=O)O)[C@@H](O[C@@H]2O[C@@H](C(=O)O)[C@@H](O[C@H]3O[C@H](COS(=O)(=O)O)[C@@H](O[C@@H]4O[C@H](C(=O)O)[C@@H](O[C@H]5O[C@H](COS(=O)(=O)O)[C@@H](OCCOCCOCCOCCNC(=O)CCc6cn(CCCCC(=O)N[C@H](Cc7ccc(O)cc7)C(=O)N7C[C@H](O)C[C@H]7C(=O)N[C@@H](CC(N)=O)C(=O)N[C@H](C(=O)N[C@@H](Cc7ccccc7)C(=O)NNC(=O)N[C@@H](CC(C)C)C(=O)N[C@@H](CCCNC(=N)N)C(=O)N[C@@H](Cc7c[nH]c8ccccc78)C(N)=O)[C@@H](C)O)nn6)[C@H](OC)[C@H]5OC)[C@H](OC)[C@H]4OC)[C@H](OS(=O)(=O)O)[C@H]3OS(=O)(=O)O)[C@H](OC)[C@H]2OC)[C@H](OC)[C@H]1OS(=O)(=O)O` [Conjugate C36]: 12.6 pM and 91.2 pM.
As for `CO[C@H]1O[C@H](COS(=O)(=O)O)[C@@H](O[C@@H]2O[C@@H](C(=O)O)[C@@H](O[C@H]3O[C@H](COS(=O)(=O)O)[C@@H](O[C@@H]4O[C@H](C(=O)O)[C@@H](O[C@H]5O[C@H](COS(=O)(=O)O)[C@@H](OCCOCCOCCOCCNC(=O)CCc6cn(CCOCCOCCOCCOCCC(=O)N[C@@H](Cc7ccc(O)cc7)C(=O)N7C[C@H](O)C[C@H]7C(=O)N[C@@H](CC(N)=O)C(=O)N[C@H](C(=O)N[C@@H](Cc7ccccc7)C(=O)NNC(=O)N[C@@H](CC(C)C)C(=O)N[C@@H](CCCNC(=N)N)C(=O)N[C@@H](Cc7c[nH]c8ccccc78)C(N)=O)[C@@H](C)O)nn6)[C@H](OC)[C@H]5OC)[C@H](OC)[C@H]4OC)[C@H](OS(=O)(=O)O)[C@H]3OS(=O)(=O)O)[C@H](OC)[C@H]2OC)[C@H](OC)[C@H]1OS(=O)(=O)O` [Conjugate C40], the EC50 reads like this: (pEC50, absence of human serum) 347 pM; under setting [1], 1660 pM.
Consider `CNC(=N)NCCC[C@H](NC(=O)[C@H](CC(C)C)NC(=O)NNC(=O)[C@H](Cc1ccccc1)NC(=O)[C@@H](NC(=O)[C@H](CC(N)=O)NC(=O)[C@H](Cc1c[nH]c2ccccc12)NC(=O)[C@H](CC(N)=O)NC(=O)[C@H](Cc1ccc(O)cc1)NC(=O)COCCOCCOCCOCCn1cc(CCC(=O)NCCOCCOCCOCCO[C@H]2[C@H](OC)[C@@H](OC)[C@@H](O[C@H]3[C@H](OC)[C@@H](OC)[C@H](O[C@H]4[C@H](OS(=O)(=O)O)[C@@H](OS(=O)(=O)O)[C@@H](O[C@H]5[C@H](OC)[C@@H](OC)[C@H](O[C@H]6[C@H](OS(=O)(=O)O)[C@@H](OS(=O)(=O)O)[C@@H](OC)O[C@@H]6COS(=O)(=O)O)O[C@H]5C(=O)O)O[C@@H]4COS(=O)(=O)O)O[C@@H]3C(=O)O)O[C@@H]2COS(=O)(=O)O)nn1)[C@@H](C)O)C(=O)N[C@@H](Cc1ccccc1)C(N)=O` [Conjugate C23], for which the EC50 was 209 pM under setting [2] and 2450 pM under setting [3].
On to `CNC(=N)NCCC[C@H](NC(=O)[C@H](CC(C)C)NC(=O)NNC(=O)[C@H](Cc1ccccc1)NC(=O)[C@@H](NC(=O)[C@H](CC(N)=O)NC(=O)[C@H](Cc1c[nH]c2ccccc12)NC(=O)[C@H](CC(N)=O)NC(=O)[C@@H](Cc1ccc(O)cc1)NC(=O)CSCCC(=O)NCCOCCOCCOCCO[C@H]1[C@H](OC)[C@@H](OC)[C@@H](O[C@H]2[C@H](OC)[C@@H](OC)[C@H](O[C@H]3[C@H](OS(=O)(=O)O)[C@@H](OS(=O)(=O)O)[C@@H](O[C@H]4[C@H](OC)[C@@H](OC)[C@H](O[C@H]5[C@H](OS(=O)(=O)O)[C@@H](OS(=O)(=O)O)[C@@H](OC)O[C@@H]5COS(=O)(=O)O)O[C@H]4C(=O)O)O[C@@H]3COS(=O)(=O)O)O[C@@H]2C(=O)O)O[C@@H]1COS(=O)(=O)O)[C@@H](C)O)C(=O)N[C@@H](Cc1ccccc1)C(N)=O` [Conjugate C2], for which the EC50 is, setting by setting: (pEC50, absence of human serum) 77.6 pM; under setting [1], 9120 pM.
On to `CO[C@H]1O[C@H](COS(=O)(=O)O)[C@@H](O[C@@H]2O[C@@H](C(=O)O)[C@@H](O[C@H]3O[C@H](COS(=O)(=O)O)[C@@H](O[C@@H]4O[C@H](C(=O)O)[C@@H](O[C@H]5O[C@H](COS(=O)(=O)O)[C@@H](OCCOCCOCCOCCNC(=O)CCc6cn(CCCCC(=O)N[C@H](Cc7ccc(O)cc7)C(=O)N7C[C@H](O)C[C@H]7C(=O)N[C@@H](CC(N)=O)C(=O)N[C@H](C(=O)N[C@@H](Cc7ccccc7)C(=O)NCC(=O)N[C@@H](CC(C)C)C(=O)N[C@@H](CCCNC(=N)N)C(=O)N[C@@H](Cc7c[nH]c8ccccc78)C(N)=O)[C@@H](C)O)nn6)[C@H](OC)[C@H]5OC)[C@H](OC)[C@H]4OC)[C@H](OS(=O)(=O)O)[C@H]3OS(=O)(=O)O)[C@H](OC)[C@H]2OC)[C@H](OS(=O)(=O)O)[C@H]1OS(=O)(=O)O` [Conjugate C39], for which the EC50 under setting [2] is 64.6 pM and the EC50 under setting [3] is 2690 pM.
